Where “and” joins values, the source holds several entries; their conditions need not be identical. Identical values can stand only once.
Experiments:
HeLa = settings: bulk resorufin, single well, 28.5 h, 10 µM, Bulk resorufin fluorescence
in vitro = settings: human, hela cells, % viability

Row | Structure (SMILES) | % viability (HeLa) | viability at 28.5 h, 10 µM (in vitro)
1 | CC[C@@H](Cn1nc(-c2ccc(F)c(F)c2)ccc1=O)NC(=O)C1CC1 [CBK282313] | 89.3% | 90.6%
2 | CC(C)[C@H](Cn1nc(C2CC2)ccc1=O)NC(=O)C1CCC1 [CBK282367] | 91.4% | 85.1%
3 | O=C(NCCc1ccccc1)[C@H]1C=CCN1C(=O)c1ccc(F)cc1 [CBK282383] | 96.3% and 92.6% | 89.4%
4 | CC[C@@H](Cn1ncc2ccccc2c1=O)NC(=O)C1CCC1 [CBK282384] | 82% | 93.4%
5 | CC(C)(C)NC(=O)CN1C(=O)[C@H]2CCCN2C(=O)c2ccccc21 [CBK282428] | 107% | 89.5%
6 | O=C(CN1C(=O)[C@H]2CCCN2C(=O)c2ccccc21)NC1CCCC1 [CBK282438] | 110% | 112%
7 | C=CCNC(=O)[C@H]1C=CCN1S(=O)(=O)c1cccc2ccccc12 [CBK282440] | 102% | 91%
8 | COc1cccc(CN2C(=O)[C@H]3CCCN3C(=O)c3ccccc32)c1 [CBK282852] | 106% | 108%
9 | O=C(CN1C(=O)[C@H]2CCCN2C(=O)c2ccccc21)NCC1CC1 [CBK282853] | 88.6% | 87.6%
10 | O=C1[C@@H]2CCCN2C(=O)c2ccccc2N1Cc1ccccc1F [CBK282855] | 106% | 93.9%
11 | O=C1[C@@H]2CCCN2C(=O)c2ccccc2N1Cc1ccc(F)cc1 [CBK282856] | 99.5% | 117%
12 | CCC(C)NC(=O)Cn1c([C@H]2CCCO2)cc2cccnc21 (stereo partly drawn) [CBK282874] | 100% | 88.1%
13 | CC(CCN1CC2C[C@@H](O)CN2C[C@H]1C)c1ccccc1 (stereo partly drawn) [CBK283010] | 89.2% | 82.4%
14 | C[C@H](Cn1c(C(F)(F)F)cc2cccnc21)NC(=O)C1CC1 [CBK283227] | 89.4% | 93.7%
15 | O=C(C1CC1)N1CCC[C@H]1Cn1nc(-c2cccs2)ccc1=O [CBK284250] | 80.9% | 76.7%
16 | Cc1oc(C2CC2)cc1C(=O)N[C@H](C)Cn1nnc2ccccc21 [CBK284258] | 80.8% | 78.1%
17 | O=C(NC[C@@H]1CCCN(C(=O)c2cscn2)C1)c1cccs1 [CBK284263] | 93.5% | 85.7%
18 | CC(C)(C)OC(=O)N1CCC[C@H]([C@H](O)c2ccc(F)cc2)C1 [CBK284298] | 80.1% | 92.3%
19 | CC[C@H](Cn1ncc2ccccc2c1=O)NC(=O)c1ccco1 [CBK284300] | 86.8% | 78.6%
20 | CC[C@H](Cn1ncc2ccccc2c1=O)NC(=O)C1CCCC1 [CBK284302] | 102% | 94.2%

Row | Structure (SMILES) | % viability (HeLa) | viability at 28.5 h, 10 µM (in vitro)
21 | O=C(C1CC1)N1CCC[C@H](Cn2nc(-c3cccs3)ccc2=O)C1 [CBK284314] | 91.8% | 74.7%
22 | O=C(NCCc1ccccc1)[C@@H]1C=CCN1C(=O)C1CC1 [CBK284315] | 81.8% | 93.6%
23 | O=C(NCCc1ccccc1)[C@@H]1C=CCN1C(=O)c1ccco1 [CBK284316] | 90% | 93%
24 | C[C@@H](Cn1nnc2ccccc21)NC(=O)c1ccco1 [CBK284319] | 86.3% | 75.9%
25 | CCS(=O)(=O)N1CC=C[C@H]1C(=O)NCCc1ccccc1 [CBK284325] | 89.7% | 107%
26 | CC(C)(C)OC(=O)N1CCC[C@@H](CNC(=O)c2cccs2)C1 [CBK284332] | 90.2% | 104%
27 | CC(C)[C@@H](Cn1c(=O)oc2ccccc21)NC(=O)c1ccco1 [CBK284531] | 86.1% | 94.1%
28 | C[C@H](Cn1c(=O)oc2ccccc21)NC(=O)c1cccs1 [CBK284532] | 90.7% | 85%
29 | C[C@@H](Cn1c(=O)oc2ccccc21)NC(=O)Cc1cccs1 [CBK284533] | 79.8% | 92.9%
30 | C[C@H](Cn1nc2c(cc1=O)CCCCC2)NC(=O)c1cccs1 [CBK284545] | 85.9% | 101%
31 | C[C@@H]1CN2CCCC2CN1Cc1cccs1 (stereo partly drawn) [CBK284550] | 98.3% | 85.6%
32 | C[C@@H]1CN2CCCC2CN1CC1=Cc2ccccc2OC1 (stereo partly drawn) [CBK284552] | 103% | 88.6%
33 | C[C@@H]1CN2C[C@H](O)CC2CN1Cc1ccccc1C(F)(F)F (stereo partly drawn) [CBK284556] | 100% | 80.7%
34 | CS(=O)(=O)N1C2CCC(C2)[C@H]1COc1cccc(C(F)(F)F)c1 (stereo partly drawn) [CBK284596] | 107% | 98.7%
35 | O=C(C1CC1)N1C2CCC(C2)[C@H]1COc1ccc(F)cc1 (stereo partly drawn) [CBK284597] | 100% | 95%
36 | CCOC(=O)c1[nH]c(C)c(CN2CC3CCCN3C[C@@H]2C)c1C (stereo partly drawn) [CBK285043] | 105% | 110%
37 | C[C@H]1CN2C[C@H](O)CC2CN1Cc1cc(Br)cs1 (stereo partly drawn) [CBK285044] | 94% | 103%
38 | COc1ccc2c(CN3CC4CCCN4C[C@H]3C)cn(C)c2c1 (stereo partly drawn) [CBK285164] | 84% | 92.4%
39 | O=C(Cn1c([C@H]2CCCO2)cc2cccnc21)NC1CCCC1 [CBK285219] | 85.4% | 88.8%
40 | O=C(c1cccnc1)N1C2CCC(C2)[C@H]1COc1ccc(F)cc1 (stereo partly drawn) [CBK285268] | 87.8% | 90.2%

Row | Structure (SMILES) | % viability (HeLa) | viability at 28.5 h, 10 µM (in vitro)
41 | C[C@@H]1CN2CCCC2CN1Cc1cc(F)cc(F)c1 (stereo partly drawn) [CBK285405] | 105% | 96.1%
42 | C[C@@H]1CN2CCCC2CN1Cc1ccsc1 (stereo partly drawn) [CBK285411] | 109% | 110%
43 | C[C@@H]1CN2C[C@H](O)CC2CN1Cc1cccc(C(F)(F)F)c1 (stereo partly drawn) [CBK285413] | 88.1% | 91.7%
44 | C=CCn1cc(CN2C[C@@H]3CCCN3C[C@H]2CCSC)c(C)n1 [CBK285420] | 106% | 87.6%
45 | COCCn1c(C)cc(CN2CC3CCCN3C[C@@H]2C)c1C (stereo partly drawn) [CBK285421] | 101% | 83.8%
46 | CCOc1ccc(CN2CC3CCCN3C[C@H]2C)cc1 (stereo partly drawn) [CBK285422] | 100% | 87.8%
47 | COCCn1cc(CN2CC3CCCN3C[C@H]2C)c2ccccc21 (stereo partly drawn) [CBK285427] | 106% | 95.7%
48 | Cc1cc(CN2CC3CCCN3C[C@@H]2C)c(C)n1-c1ccccn1 (stereo partly drawn) [CBK285431] | 98.1% | 87%
49 | CC(C)n1cc(CN2CC3C[C@@H](O)CN3C[C@H]2C)c2ccccc21 (stereo partly drawn) [CBK285437] | 88.8% | 107%
50 | C[C@@H]1CN2CCCC2CN1Cc1cc(F)ccc1F (stereo partly drawn) [CBK285444] | 94.9% | 104%
51 | C[C@@H]1CN2CCCC2CN1Cc1ccc(F)c(F)c1 (stereo partly drawn) [CBK285445] | 105% | 99.5%
52 | CCn1ncc(CN2C[C@@H]3CCCN3C[C@@H]2CCSC)c1C [CBK285446] | 110% | 109%
53 | Cc1cc(CN2CC3CCCN3C[C@H]2C)oc1C (stereo partly drawn) [CBK285449] | 103% | 96.9%
54 | CCn1cc(CN2C[C@@H]3CCCN3C[C@H]2CCSC)c(C)n1 [CBK285460] | 99.1% | 96.3%
55 | COc1ccc(CC(=O)N2CCN(Cc3ccco3)C[C@H]2C)cc1 [CBK285483] | 104% | 96%
56 | O=C(NC1CC1)[C@H]1C=CCN1S(=O)(=O)c1cccc(F)c1 [CBK285485] | 98.9% | 111%
57 | O=C(CN1C(=O)[C@@H]2CCCN2c2ncccc21)NCc1ccccc1 [CBK286203] | 117% | 115%
58 | O=C(CN1C(=O)[C@@H]2CCCN2C(=O)c2ccccc21)N1CCOCC1 [CBK286401] | 103% | 83.9%
59 | Cc1cc2ncn(C3CC(=O)N(c4ccc(C(=O)O)cc4)C3=O)c2cc1C (stereo not drawn) [CBK286586] | 92.4% | 89.4%
60 | O=C(O)c1cc(-c2ccccc2)c2c(=O)[nH][nH]c2n1 [CBK286631] | 102% and 88.2% | 105%
